Measured values published in the supplement of paper PMC10307832.

Columns and labels:
Experiment in all cases: relative viability (nuclei count vs DMSO), 5 days (fraction); higher = more cells survive
[1] = compound: C=CC(=O)Nc1cc(-n2c(=O)ccc3cnc4ccc(-c5ccc(NS(C)(=O)=O)cc5)cc4c32)ccc1C [BMX-IN-1] + CS(=O)(=O)N1CCN(Cc2cc3nc(-c4cccc5[nH]ncc45)nc(N4CCOCC4)c3s2)CC1 [Pictilisib] (partner 1 µM)
Method in brief: (§1)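 Lung cancer cell lines were seeded in 1536-well plates and dosed by pin tool the next day, with either a single drug or a fixed anchor-drug dose combined with five library-drug doses (not always all listed) spaced in √10 steps. Five days later, one step fixed the cells and stained their nuclei (final 0.05% Triton X-100, 1% formaldehyde, 1 ug/ml Hoechst), and nuclei were counted on 4× images. Relative viability is the nuclei count in treated wells divided by the count in vehicle wells, and each value is the median of duplicate plates.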

[2] = compound: C=CC(=O)Nc1cc(-n2c(=O)ccc3cnc4ccc(-c5ccc(NS(C)(=O)=O)cc5)cc4c32)ccc1C [BMX-IN-1] + O=C(CCCCCCC(=O)Nc1ccccc1)NO [Vorinostat] (partner 1 µM)
Method in brief: as §1

[3] = compound: C=CC(=O)N1CCC[C@@H](n2nc(-c3ccc(Oc4ccccc4)cc3)c3c(N)ncnc32)C1 [Ibrutinib] + Nc1nc2[nH]cc(CCc3ccc(C(=O)N[C@@H](CCC(=O)O)C(=O)O)cc3)c2c(=O)[nH]1 [Pemetrexed] (partner 0.2 µM)
Method in brief: as §1

[4] = compound: C=CC(=O)Nc1cc(-n2c(=O)ccc3cnc4ccc(-c5ccc(NS(C)(=O)=O)cc5)cc4c32)ccc1C [BMX-IN-1] + CS(=O)(=O)CCNCc1ccc(-c2ccc3ncnc(Nc4ccc(OCc5cccc(F)c5)c(Cl)c4)c3c2)o1 [Lapatinib] (partner 2 µM)
Method in brief: as §1

## SK-MES-1
[1]; first compound 0.02 µM
  relative viability: 0.345
[1]; first compound 0.2 µM
  relative viability: 0.383
[1]; first compound 0.6325 µM
  relative viability: 0.414
[1]; first compound 2 µM
  relative viability: 0.344
[2]; first compound 0.02 µM
  relative viability: 1.1
[2]; first compound 0.2 µM
  relative viability: 1.18
[2]; first compound 0.6325 µM
  relative viability: 1.45
[2]; first compound 2 µM
  relative viability: 0.717
[3]; first compound 0.005 µM
  relative viability: 1.01
[3]; first compound 0.01581 µM
  relative viability: 0.951
[3]; first compound 0.05 µM
  relative viability: 0.905
[3]; first compound 0.1581 µM
  relative viability: 1.14
[3]; first compound 0.5 µM
  relative viability: 0.752
[4]; first compound 0.02 µM
  relative viability: 0.473
[4]; first compound 0.2 µM
  relative viability: 0.466
[4]; first compound 0.6325 µM
  relative viability: 0.489
[4]; first compound 2 µM
  relative viability: 0.439
